Measured values from patent US20150031068A1, “METHODS AND COMPOSITIONS FOR DETECTING IMMUNE SYSTEM ACTIVATION” (Lycera Corporation, priority 2012, published 2015).

How the values were obtained:
[1] = Plasma metabolite profile after ^13C-glutamine tracer load in mouse model of acute graft-versus-host disease; format: in vivo; settings: for circulating total glutamine concentration in plasma, change: grafted host (allo-transplanted) mice compared to control donor and control host mice
Description: To investigate metabolic adaptations that occur in response to allo-activation, host strain animals (female B6D2F1 mice, H-2b/d) were injected with 50-75 million spleen cells from donor strain animals (female B6.SJL mice, H-2b). […] Eight days after injection, transplanted mice along with control non-transplanted animals from the host and donor strains received with U-^13C(6)-glutamine (Sigma#60516, 1.0 g/kg I.P.) or U-^13C(5)-glucose (Sigma#660663, 1.0 g/kg I.P.) or potassium U-^13C(16)-palmitate (Sigma#687871, 1.0 g/kg, gastric gavage). Treatment groups of four mice each were euthanized 60 minutes after the glutamine or glucose tracer loads or 180 minutes after palmitate tracer load by over exposure to carbon dioxide. Terminal blood samples were collected by cardiac puncture, plasma prepared after blood was mixed with heparin and frozen at −80° C. Spleens were removed and processed to isolate T cells as separate fractions derived from either the donor or host strains of mice. Samples were stored on dry ice overnight and then stored at −80° C. until analyzed using GC/MS-based mass isotopomer analysis.

T cells [2] = assay: Molar percent enrichment of [4,5-^13C2]-L-glutamate in spleen T cells after ^13C-palmitate tracer load; format: in vivo, mouse
Description: The molar percent enrichment of [4,5-^13C2]-L-glutamate is the amount of [4,5-^13C2]-L-glutamate in a sample divided by the total amount of all ^13C-labeled glutamate isotopomers in the sample.

T cells [3] = assay: ^13C delta in CO2 in spleen T cells after ^13C-palmitate tracer load, acute graft-versus-host disease model; format: in vivo, mouse
Description: To investigate metabolic adaptations that occur in response to allo-activation, host strain animals (female B6D2F1 mice, H-2b/d) were injected with 50-75 million spleen cells from donor strain animals (female B6.SJL mice, H-2b). The miss-match between the strains major histocompatibility antigens (e.g., H-2b/d versus H-2b) causes T cell activation of donor T cells in vivo and results in a mouse model of acute graft versus host disease. Eight days after injection, transplanted mice along with control non-transplanted animals from the host and donor strains received with U-^13C(6)-glutamine (Sigma#60516, 1.0 g/kg I.P.) or U-^13C(5)-glucose (Sigma#660663, 1.0 g/kg I.P.) or potassium U-^13C(16)-palmitate (Sigma#687871, 1.0 g/kg, gastric gavage). Treatment groups of four mice each were euthanized 60 minutes after the glutamine or glucose tracer loads or 180 minutes after palmitate tracer load by over exposure to carbon dioxide. Terminal blood samples were collected by cardiac puncture, plasma prepared after blood was mixed with heparin and frozen at −80° C. Spleens were removed and processed to isolate T cells as separate fractions derived from either the donor or host strains of mice. Samples were stored on dry ice overnight and then stored at −80° C. until analyzed using GC/MS-based mass isotopomer analysis.

| circulating total glutamine concentration in plasma, change [1] | circulating total glutamine concentration in plasma, change ([1]; listed as glutamine) | share of ^13C-labeled glutamine fraction still uniformly ^13C-labeled ([1]; grafted host animals, plasma, one hour after glutamine tracer load) | molar percent enrichment of [4,5-^13C2]-L-glutamate (T cells [2]; allo-activated donor T cells versus control naive T cells, FIG. 6) | molar percent enrichment of [4,5-^13C2]-L-glutamate (T cells [2]; host T cells from allo-transplanted mouse versus T cells from healthy host control, FIG. 7) | ^13C delta in CO2 (T cells [3]; allo-activated donor type T cells versus control naive donor type T cells, FIG. 4B) | ^13C delta in CO2 (T cells [3]; host T cells from allo-transplanted mouse versus host-type T cells from healthy host control, FIG. 5B) | SMILES |
| --- | --- | --- | --- | --- | --- | --- | --- |
| more than two-fold drop | reduction | 83.4% | – | – | – | – | NC(=O)CCC(N)C(=O)O [[U-^13C5]-L-glutamine] |
| – | – | – | over six times greater | no statistically significant difference | higher | no statistically significant difference | [13CH3][13CH2][13CH2][13CH2][13CH2][13CH2][13CH2][13CH2][13CH2][13CH2][13CH2][13CH2][13CH2][13CH2][13CH2][13C](=O)[O-].[K+] [uniformly labeled ^13C-palmitate, potassium U-^13C(16)-palmitate] |
